Calls of active or inactive are those of the source.
Assays:
Mus musculus [1] = assay: Neuroprotective activity in HdhQ140 knock-in mouse model assessed as rescue of mHTT-induced neuronal survival loss at 5 mg/kg, iv QD for 4 weeks by […] based immunostaining based analysis; assay type: functional, organism-based
[2] = molecular target: G-protein coupled receptor 52 (Mus musculus) (UniProt P0C5J4); assay: In vivo antagonist activity at GPR52 in HdhQ140 knock-in mouse model assessed as reduction in soluble mHTT levels in striatum at 5 mg/kg, iv QD for 4 weeks by TR-FRET analysis; assay type: functional, organism-based
[3] = molecular target: Glucagon-like peptide 1 receptor (Homo sapiens) (UniProt P43220); assay: Antagonist activity at GLP-1R (unknown origin) expressed in HEK293 cells assessed as inhibition of GLP1-induced cAMP accumulation; assay type: functional, cell-based
[4] = molecular target: G-protein coupled receptor 52 (Homo sapiens, UniProt Q9Y2T5); assay: Antagonist activity at GPR52 (unknown origin) expressed in HEK293 cells assessed as inhibition of WO459-induced cAMP accumulation preincubated for 15 mins followed by WO459 addition and measured after 30 mins by LANCE Ultra cAMP kit based microplate reader analysis; assay type: functional, cell-based; settings: read-out: IC50
STHdhQ7/111 = assay: Decrease in wild type HTT level in GPR52 knockdown mouse STHdhQ7/111 cells with at 1 to 10 uM incubated for 48 hrs in presence of 2B7-terbium and 2166-D2 antibodies by TR-FRET analysis; assay type: functional, cell-based; settings: dose 1-10 µM
[5] = molecular target: G-protein coupled receptor 52 (Mus musculus) (UniProt P0C5J4); assay: In vivo antagonist activity at GPR52 in wild type mouse model assessed as reduction in mHTT aggregate levels in cortex in presence of 4C9 antibody labelled with terbium at 5 mg/kg, iv QD for 4 weeks by TR-FRET analysis; assay type: functional, organism-based
[6] = molecular target: G-protein coupled receptor 52 (Mus musculus) (UniProt P0C5J4); assay: Antagonist activity at GPR52 in neurons from HdhQ7/Q140 mouse assessed as decrease in wild type HTT levels at 0.1 to 3 uM incubated for 48 hrs in presence of 2B7-terbium and 2166-D2 antibodies by TR-FRET analysis; assay type: tissue-based; settings: Neuron, filed as antagonist, dose 0.1-3 µM
[7] = molecular target: G-protein coupled receptor 52 (Mus musculus) (UniProt P0C5J4); assay: In vivo antagonist activity at GPR52 in HdhQ140 knock-in mouse model assessed as reduction in mHTT levels in cortex at 0.5 mM, icv QD for 3 weeks by TR-FRET analysis; assay type: functional
Mus musculus [8] = assay: Neuroprotective activity in HdhQ140 mouse model assessed as rescue of motor deficiency by measuring crossing time at 5 mg/kg, iv QD for 4 weeks by balance beam test; assay type: functional, organism-based
[9] = molecular target: G-protein coupled receptor 52 (Mus musculus) (UniProt P0C5J4); assay: In vivo antagonist activity at GPR52 in wild type mouse model assessed as reduction in wild type HTT levels at 0.5 mM, icv QD for 3 weeks by TR-FRET analysis; assay type: functional
[10] = molecular target: D(2) dopamine receptor (Homo sapiens) (UniProt P14416); assay: Antagonist activity at dopamine D2 receptor (unknown origin) expressed in HEK293 cells assessed as inhibition of dopamine-induced cAMP accumulation; assay type: functional, cell-based
[11] = molecular target: T1, Alpha-1D adrenergic receptor (Homo sapiens) (UniProt P25100); assay: Antagonist activity at alpha1D adrenergic receptor (unknown origin) expressed in HEK293 cells assessed as inhibition of phenylephrine-induced cAMP accumulation; assay type: functional, cell-based
T1 sequence (whole entry): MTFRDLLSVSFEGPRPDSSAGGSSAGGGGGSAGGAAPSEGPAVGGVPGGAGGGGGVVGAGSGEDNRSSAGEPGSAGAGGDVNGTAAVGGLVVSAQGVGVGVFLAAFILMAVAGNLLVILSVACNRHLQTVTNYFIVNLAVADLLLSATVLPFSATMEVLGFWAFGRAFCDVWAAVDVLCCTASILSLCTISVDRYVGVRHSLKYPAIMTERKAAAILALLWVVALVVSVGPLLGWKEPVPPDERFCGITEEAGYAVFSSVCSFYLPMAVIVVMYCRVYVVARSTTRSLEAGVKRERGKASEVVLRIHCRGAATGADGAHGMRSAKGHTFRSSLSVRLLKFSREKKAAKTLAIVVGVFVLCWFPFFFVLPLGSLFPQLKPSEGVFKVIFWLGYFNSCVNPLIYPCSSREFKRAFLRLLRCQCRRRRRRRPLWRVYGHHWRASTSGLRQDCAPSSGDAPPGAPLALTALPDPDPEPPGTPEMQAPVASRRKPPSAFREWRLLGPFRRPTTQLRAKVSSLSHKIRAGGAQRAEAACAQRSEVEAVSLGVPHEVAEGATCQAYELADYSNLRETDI

[12] = molecular target: G-protein coupled receptor 52 (Mus musculus) (UniProt P0C5J4); assay: Antagonist activity at GPR52 in mouse STHdhQ7/111 cells assessed as decrease in mHTT levels at 1 to 10 uM incubated for 48 hrs in presence of 2B7-terbium and 2166-D2 antibodies by western blot analysis; assay type: cell-based; settings: filed as antagonist, dose 1-10 µM
[13] = Cytotoxicity against mouse STHdhQ7/111 cells assessed as cell viability at < 10 uM incubated for 48 hrs by cell titer glo luminescence based assay; settings: sthdhq7/111, 48 h
[14] = molecular target: G-protein coupled receptor 52 (Mus musculus) (UniProt P0C5J4); assay: In vivo antagonist activity at GPR52 in HdhQ140 knock-in mouse model assessed as reduction in mHTT aggregate levels in striatum in presence of 4C9 antibody labelled with terbium at 5 mg/kg, iv QD for 4 weeks by TR-FRET analysis; assay type: functional, organism-based
[15] = molecular target: G-protein coupled receptor 52 (Mus musculus) (UniProt P0C5J4); assay: Antagonist activity at GPR52 in mouse STHdhQ7/111 cells assessed as decrease in mHTT levels incubated for 48 hrs in presence of 2B7-terbium and 2166-D2 antibodies by TR-FRET; assay type: cell-based; settings: filed as antagonist, dose 0.3-10 µM
[16] = molecular target: G-protein coupled receptor 52 (Mus musculus) (UniProt P0C5J4); assay: In vivo antagonist activity at GPR52 in wild type mouse model assessed as reduction in mHTT aggregate levels in striatum in presence of 4C9 antibody labelled with D2 fluorophore at 5 mg/kg, iv QD for 4 weeks by TR-FRET analysis; assay type: functional, organism-based
[17] = molecular target: G-protein coupled receptor 52 (Mus musculus) (UniProt P0C5J4); assay: In vivo antagonist activity at GPR52 in HdhQ140 knock-in mouse model assessed as reduction in mHTT aggregate levels in cortex in presence of 4C9 antibody labelled with D2 fluorophore at 5 mg/kg, iv QD for 4 weeks by TR-FRET analysis; assay type: functional, organism-based
[18] = molecular target: Glucagon receptor (Homo sapiens) (UniProt P47871); assay: Antagonist activity at GCGR (unknown origin) expressed in HEK293 cells assessed as inhibition of glucagon-induced cAMP accumulation; assay type: functional, cell-based
Mus musculus [19] = assay: Neuroprotective activity in HdhQ140 knock-in mouse model assessed as decrease in staining intensity of microglia in striatum at 5 mg/kg, iv QD for 4 weeks by Iba1 staining based immunostaining analysis; assay type: functional, organism-based
Neuron = assay: Neuroprotective activity in neurons from HdhQ7/Q140 mouse assessed as rescue from mHTT-induced neuronal loss at 3 uM incubated for 48 hrs maintained in absence of growth factor N2 and B27 under starvation condition by immunostaining based analysis; assay type: functional, tissue-based

Sequence of G-protein coupled receptor 52 (Mus musculus) (P0C5J4 whole entry): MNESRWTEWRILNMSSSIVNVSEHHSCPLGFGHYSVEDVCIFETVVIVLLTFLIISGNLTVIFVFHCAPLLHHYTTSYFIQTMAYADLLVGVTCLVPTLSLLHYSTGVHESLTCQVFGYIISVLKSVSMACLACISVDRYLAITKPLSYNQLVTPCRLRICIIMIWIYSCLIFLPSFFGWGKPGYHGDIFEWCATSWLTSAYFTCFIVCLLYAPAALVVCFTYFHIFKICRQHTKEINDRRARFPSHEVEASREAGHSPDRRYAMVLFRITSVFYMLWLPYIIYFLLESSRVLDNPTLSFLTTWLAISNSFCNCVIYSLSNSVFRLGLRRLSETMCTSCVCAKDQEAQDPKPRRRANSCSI
Sequence of Glucagon receptor (Homo sapiens) (P47871 whole entry): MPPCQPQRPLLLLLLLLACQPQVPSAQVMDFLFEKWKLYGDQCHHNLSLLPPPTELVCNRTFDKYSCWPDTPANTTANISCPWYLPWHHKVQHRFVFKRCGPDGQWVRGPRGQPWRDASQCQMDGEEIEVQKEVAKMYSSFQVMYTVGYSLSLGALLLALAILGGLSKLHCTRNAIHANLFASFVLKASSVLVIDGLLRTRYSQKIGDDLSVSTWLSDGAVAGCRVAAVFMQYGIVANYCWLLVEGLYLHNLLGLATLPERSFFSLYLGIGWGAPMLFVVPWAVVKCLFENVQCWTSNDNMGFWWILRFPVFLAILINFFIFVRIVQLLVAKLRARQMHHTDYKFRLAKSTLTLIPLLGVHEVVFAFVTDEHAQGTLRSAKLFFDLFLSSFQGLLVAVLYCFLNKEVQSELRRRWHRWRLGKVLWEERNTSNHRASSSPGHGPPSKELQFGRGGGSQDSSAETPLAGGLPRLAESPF
Sequence of D(2) dopamine receptor (Homo sapiens) (P14416 whole entry): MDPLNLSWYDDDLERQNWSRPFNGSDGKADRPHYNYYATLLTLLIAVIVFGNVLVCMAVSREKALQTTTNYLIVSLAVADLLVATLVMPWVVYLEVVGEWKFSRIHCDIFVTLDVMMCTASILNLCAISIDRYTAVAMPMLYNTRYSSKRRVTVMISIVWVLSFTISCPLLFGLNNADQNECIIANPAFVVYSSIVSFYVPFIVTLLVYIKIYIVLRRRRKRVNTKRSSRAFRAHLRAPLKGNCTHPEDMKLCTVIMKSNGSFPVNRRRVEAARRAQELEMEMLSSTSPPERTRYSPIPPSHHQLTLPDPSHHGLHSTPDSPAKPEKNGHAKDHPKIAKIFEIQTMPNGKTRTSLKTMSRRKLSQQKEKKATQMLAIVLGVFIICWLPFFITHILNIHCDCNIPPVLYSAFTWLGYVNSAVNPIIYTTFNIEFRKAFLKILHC
Sequence of Glucagon-like peptide 1 receptor (Homo sapiens) (P43220 whole entry): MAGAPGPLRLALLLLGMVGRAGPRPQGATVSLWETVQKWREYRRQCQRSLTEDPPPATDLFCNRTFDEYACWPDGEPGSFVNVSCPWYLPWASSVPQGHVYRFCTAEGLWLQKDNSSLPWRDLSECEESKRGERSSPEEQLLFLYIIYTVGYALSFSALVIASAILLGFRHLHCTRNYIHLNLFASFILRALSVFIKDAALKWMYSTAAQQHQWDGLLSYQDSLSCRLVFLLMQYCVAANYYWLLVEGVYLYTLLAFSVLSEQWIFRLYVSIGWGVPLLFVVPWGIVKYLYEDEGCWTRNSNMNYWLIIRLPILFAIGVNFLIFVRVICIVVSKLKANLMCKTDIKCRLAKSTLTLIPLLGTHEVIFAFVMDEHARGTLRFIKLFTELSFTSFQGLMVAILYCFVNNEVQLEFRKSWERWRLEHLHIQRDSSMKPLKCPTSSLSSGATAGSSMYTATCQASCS
Sequence of G-protein coupled receptor 52 (Q9Y2T5 whole entry): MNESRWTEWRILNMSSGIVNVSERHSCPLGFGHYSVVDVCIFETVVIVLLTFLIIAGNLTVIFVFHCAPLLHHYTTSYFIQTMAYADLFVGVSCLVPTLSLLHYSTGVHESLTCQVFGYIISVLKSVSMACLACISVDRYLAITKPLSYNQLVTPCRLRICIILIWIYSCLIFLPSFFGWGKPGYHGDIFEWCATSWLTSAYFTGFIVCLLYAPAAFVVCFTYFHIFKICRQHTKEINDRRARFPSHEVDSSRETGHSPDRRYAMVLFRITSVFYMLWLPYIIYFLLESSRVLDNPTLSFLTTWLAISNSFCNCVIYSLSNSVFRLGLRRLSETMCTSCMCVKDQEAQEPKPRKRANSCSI

O=C(/C=C/CCc1ccccc1)c1ccco1
Non-Toxic: Activity [13]
inactive: Activity [3] | Activity (STHdhQ7/111) | Activity [5] | Activity [7] | Activity [9] | Activity [10] | Activity [11] | Activity [16] | Activity [17] | Activity [18]
active: Activity (Mus musculus [1]) | Activity [2] | Activity [6] | Activity (Mus musculus [8]) | Activity [12] | Activity [14] | Activity [15] Dose-dependent effect | Activity (Mus musculus [19]) | Activity (Neuron)
630 nM: IC50 [4]

Reference: ChEMBL document CHEMBL4706623, “GPR52 Antagonist Reduces Huntingtin Levels and Ameliorates Huntington's Disease-Related Phenotypes” (J Med Chem, 2021)
